Tested on: intertrigo
Test: Topical application of the skin salve to patients suffering from intertrigo
Type: in vivo, human
Details: Example 2: person with diabetes, underside of breasts; before use of the skin salve
Description: In this experiment the skin salve made in Example 1 was evaluated on a person suffering from diabetes and intertrigo on the underside of their breasts. The intertrigo had caused the skin to be inflamed, burned, and was raw in some areas. This skin condition was painful and was aggravated by the patient's bra, heat, and sweat. Additionally, the intertrigo was an unsightly rash.
This patient had treated their intertrigo with a variety of over-the-counter salves and powders without success.
This patient topically applied the skin salve of this invention which was made by the procedure described in Example 1 to the inflamed skin under their breasts on two consecutive evenings after taking a bath. […]
In this experiment the skin salve made in Example 1 was evaluated on another person suffering from diabetes and intertrigo on the underside of their breasts. […]
In this experiment the skin salve made in Example 1 was evaluated on another person suffering from intertrigo on the underside of their breasts. […]
In this experiment the skin salve made in Example 1 was evaluated on a person suffering from intertrigo on the underside of their breasts. […]
In this experiment the skin salve made in Example 1 was evaluated on a person suffering from intertrigo on the underside of their breasts and the underside of their belly. […]

`CC(C)O` [isopropyl alcohol] was tested, and the “effect on intertrigo of the patient's earlier treatments” value was “without any relief”.
